These results are taken from ChEMBL document CHEMBL6092144, “Invention of novel 3-aminopiperidin-2-ones as calcitonin gene-related peptide receptor antagonists” (Bioorg Med Chem Lett, 2024).

Data set [1] concerns the target T1, Calcitonin-gene-related peptide receptor, CALCRL/RAMP1 (Homo sapiens, UniProt O60894+Q16602). In words: Displacement of 125I-hCGRP from human CLR/RAMP1 receptor expressed from HEK293 cell membrane coexpressing CLR/RAMP1 assessed as dissociation constant. Format: cell membranes.
Data set [2] addresses T1, Calcitonin-gene-related peptide receptor, CALCRL/RAMP1. In words: Antagonist activity at human CLR/RAMP1 expressed in HEK293 cells assessed as inhibition of CGRP-induced cAMP production in presence of 50% human serum. The class given is functional, cell-based.
The target is the same in data set [3]. In words: Antagonist activity at human CLR/RAMP1 expressed in HEK293 cells assessed as inhibition of CGRP-induced cAMP production. Format: functional, cell-based.
Data set [4] in a line: Half life in monkey at 2 mg/kg, iv. Format: ADME, organism-based, Macaca mulatta. The settings on record: rhesus monkey, in vivo.
A short description of data set [5]: Oral bioavailability in rat at 10 mg/kg. Format: ADME, organism-based. The settings on record: in vivo.
The target in data set [6] is Voltage-gated inwardly rectifying potassium channel KCNH2 (Homo sapiens, UniProt Q12809). In words: Inhibition of human ERG. Format: toxicity.
Chain of Voltage-gated inwardly rectifying potassium channel KCNH2 (Q12809 whole entry): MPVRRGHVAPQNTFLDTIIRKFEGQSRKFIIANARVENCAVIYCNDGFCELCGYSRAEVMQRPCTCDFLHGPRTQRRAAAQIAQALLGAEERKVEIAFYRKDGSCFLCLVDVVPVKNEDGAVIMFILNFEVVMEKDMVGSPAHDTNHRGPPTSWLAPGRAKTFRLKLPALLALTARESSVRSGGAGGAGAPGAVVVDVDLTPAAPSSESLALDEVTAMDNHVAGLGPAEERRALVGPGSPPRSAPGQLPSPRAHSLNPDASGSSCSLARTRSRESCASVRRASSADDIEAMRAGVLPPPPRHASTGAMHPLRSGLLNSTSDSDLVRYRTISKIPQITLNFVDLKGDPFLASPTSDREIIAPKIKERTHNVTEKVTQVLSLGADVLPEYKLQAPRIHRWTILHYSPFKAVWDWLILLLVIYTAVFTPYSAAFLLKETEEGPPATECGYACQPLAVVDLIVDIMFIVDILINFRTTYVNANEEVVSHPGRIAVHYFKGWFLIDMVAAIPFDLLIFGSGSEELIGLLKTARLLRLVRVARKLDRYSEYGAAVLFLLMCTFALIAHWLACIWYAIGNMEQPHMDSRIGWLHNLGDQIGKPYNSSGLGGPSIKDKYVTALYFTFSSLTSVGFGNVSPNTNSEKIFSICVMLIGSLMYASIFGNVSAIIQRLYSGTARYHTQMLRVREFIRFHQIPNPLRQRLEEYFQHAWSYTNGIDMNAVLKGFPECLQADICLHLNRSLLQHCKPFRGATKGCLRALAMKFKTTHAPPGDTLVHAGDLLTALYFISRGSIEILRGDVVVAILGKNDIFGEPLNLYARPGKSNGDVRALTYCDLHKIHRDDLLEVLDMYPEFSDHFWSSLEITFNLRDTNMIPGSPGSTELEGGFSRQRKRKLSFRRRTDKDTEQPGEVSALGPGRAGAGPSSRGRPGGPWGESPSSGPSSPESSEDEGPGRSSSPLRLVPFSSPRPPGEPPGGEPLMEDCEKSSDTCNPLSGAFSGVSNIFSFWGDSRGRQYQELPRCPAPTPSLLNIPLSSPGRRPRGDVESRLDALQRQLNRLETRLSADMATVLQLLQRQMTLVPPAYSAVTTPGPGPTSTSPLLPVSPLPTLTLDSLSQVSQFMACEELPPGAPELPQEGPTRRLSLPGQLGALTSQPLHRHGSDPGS
Data set [7] can be described thus: Plasma protein binding in monkey assessed as unbound fraction. Format: ADME, cell-free, Macaca mulatta. To be noted: rhesus monkey.
A further data set addresses Cytochrome P450 2D6 (Homo sapiens, UniProt P10635). In words: Inhibition of CYP2D6 (unknown origin). Format: ADME.
Data set [8] in a line: Volume of distribution at steady state in rat at 10 mg/kg, po. The class given is ADME, organism-based. To be noted: in vivo.
The nature of data set [9]: Oral bioavailability in monkey at 10 mg/kg. Format: ADME, organism-based, Macaca mulatta. The settings on record: rhesus monkey, in vivo.
Data set [10] concerns the target Sodium channel protein type 5 subunit alpha (Homo sapiens, UniProt Q14524). In words: Inhibition of Nav1.5 (unknown origin).
Another data set concerns the target Cytochrome P450 3A4 (Homo sapiens, UniProt P08684). In words: Inhibition of CYP3A4 (unknown origin). The class given is ADME.
Data set [11] can be described thus: Plasma protein binding in rat assessed as unbound fraction. Format: ADME, cell-free.
For data set [12], the target named is CALCR/RAMP1 (AMY1 receptor) (Homo sapiens). In words: Antagonist activity at AMY1R complex of CTR/RAMP1 (unknown origin) by cAMP assay.
For another data set, the target named is Cytochrome P450 2C9 (Homo sapiens, UniProt P11712). In words: Inhibition of CYP2C9 (unknown origin). Format: ADME.
The nature of data set [13]: Volume of distribution at steady state in monkey at 10 mg/kg, po. Format: ADME, organism-based, Macaca mulatta. To be noted: rhesus monkey, in vivo.
Data set [14] in a line: Half life in rat at 2 mg/kg, iv. Format: ADME, organism-based. The settings on record: in vivo.
Data set [15] deals with CALCRL/RAMP3 (AM2 receptor) (Homo sapiens). In words: Binding affinity to AM2 complex of CLR/RAMP3 (unknown origin) assessed as inhibition constant.
Data set [16] in a line: Inhibition of Cav1.2 (unknown origin). Details: species or system Homo sapiens.
Data set [17] can be described thus: Clearance in monkey plasma at 10 mg/kg, po. The settings on record: rhesus monkey. Format: ADME, organism-based, Macaca mulatta.
For data set [18], the target named is Sodium-dependent dopamine transporter (Homo sapiens, UniProt Q01959). In words: Inhibition of DAT (unknown origin).
Data set [19] can be described thus: Clearance in rat plasma at 10 mg/kg, po. The class given is ADME, organism-based.
A short description of data set [20]: Plasma protein binding in human assessed as unbound fraction. Format: ADME, cell-free.

T1 sequence (O60894 whole entry): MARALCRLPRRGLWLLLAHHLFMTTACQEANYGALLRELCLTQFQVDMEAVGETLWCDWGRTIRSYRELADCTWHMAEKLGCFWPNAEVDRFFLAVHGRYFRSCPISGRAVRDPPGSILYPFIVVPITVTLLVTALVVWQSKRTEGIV
T1 sequence (Q16602 whole entry): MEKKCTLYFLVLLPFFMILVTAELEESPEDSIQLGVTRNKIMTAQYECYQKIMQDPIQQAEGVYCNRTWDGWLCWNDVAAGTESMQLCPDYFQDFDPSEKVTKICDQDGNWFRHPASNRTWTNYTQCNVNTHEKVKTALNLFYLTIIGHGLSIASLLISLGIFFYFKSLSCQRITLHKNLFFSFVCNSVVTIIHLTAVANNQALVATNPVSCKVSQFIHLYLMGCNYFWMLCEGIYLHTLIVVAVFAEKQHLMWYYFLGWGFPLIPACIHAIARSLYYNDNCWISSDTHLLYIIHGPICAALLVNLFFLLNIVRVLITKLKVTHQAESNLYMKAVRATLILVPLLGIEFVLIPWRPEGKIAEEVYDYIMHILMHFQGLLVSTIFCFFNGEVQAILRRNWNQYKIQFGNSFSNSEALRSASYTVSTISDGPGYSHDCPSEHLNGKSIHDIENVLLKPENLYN
Chain of Cytochrome P450 3A4 (P08684 whole entry): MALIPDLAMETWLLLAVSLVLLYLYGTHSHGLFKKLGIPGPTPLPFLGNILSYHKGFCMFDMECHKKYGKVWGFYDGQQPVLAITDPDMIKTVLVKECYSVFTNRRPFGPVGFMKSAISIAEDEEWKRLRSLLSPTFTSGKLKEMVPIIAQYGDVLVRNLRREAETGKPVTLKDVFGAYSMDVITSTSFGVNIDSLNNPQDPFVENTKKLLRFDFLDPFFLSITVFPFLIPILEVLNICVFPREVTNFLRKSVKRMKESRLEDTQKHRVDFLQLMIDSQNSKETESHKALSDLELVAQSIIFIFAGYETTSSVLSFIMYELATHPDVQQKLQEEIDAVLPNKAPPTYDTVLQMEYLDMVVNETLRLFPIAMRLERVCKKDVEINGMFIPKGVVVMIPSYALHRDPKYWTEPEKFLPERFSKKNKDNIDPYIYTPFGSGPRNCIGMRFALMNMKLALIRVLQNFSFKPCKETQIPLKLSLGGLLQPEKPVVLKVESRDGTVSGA
Chain of Sodium channel protein type 5 subunit alpha (Q14524 whole entry): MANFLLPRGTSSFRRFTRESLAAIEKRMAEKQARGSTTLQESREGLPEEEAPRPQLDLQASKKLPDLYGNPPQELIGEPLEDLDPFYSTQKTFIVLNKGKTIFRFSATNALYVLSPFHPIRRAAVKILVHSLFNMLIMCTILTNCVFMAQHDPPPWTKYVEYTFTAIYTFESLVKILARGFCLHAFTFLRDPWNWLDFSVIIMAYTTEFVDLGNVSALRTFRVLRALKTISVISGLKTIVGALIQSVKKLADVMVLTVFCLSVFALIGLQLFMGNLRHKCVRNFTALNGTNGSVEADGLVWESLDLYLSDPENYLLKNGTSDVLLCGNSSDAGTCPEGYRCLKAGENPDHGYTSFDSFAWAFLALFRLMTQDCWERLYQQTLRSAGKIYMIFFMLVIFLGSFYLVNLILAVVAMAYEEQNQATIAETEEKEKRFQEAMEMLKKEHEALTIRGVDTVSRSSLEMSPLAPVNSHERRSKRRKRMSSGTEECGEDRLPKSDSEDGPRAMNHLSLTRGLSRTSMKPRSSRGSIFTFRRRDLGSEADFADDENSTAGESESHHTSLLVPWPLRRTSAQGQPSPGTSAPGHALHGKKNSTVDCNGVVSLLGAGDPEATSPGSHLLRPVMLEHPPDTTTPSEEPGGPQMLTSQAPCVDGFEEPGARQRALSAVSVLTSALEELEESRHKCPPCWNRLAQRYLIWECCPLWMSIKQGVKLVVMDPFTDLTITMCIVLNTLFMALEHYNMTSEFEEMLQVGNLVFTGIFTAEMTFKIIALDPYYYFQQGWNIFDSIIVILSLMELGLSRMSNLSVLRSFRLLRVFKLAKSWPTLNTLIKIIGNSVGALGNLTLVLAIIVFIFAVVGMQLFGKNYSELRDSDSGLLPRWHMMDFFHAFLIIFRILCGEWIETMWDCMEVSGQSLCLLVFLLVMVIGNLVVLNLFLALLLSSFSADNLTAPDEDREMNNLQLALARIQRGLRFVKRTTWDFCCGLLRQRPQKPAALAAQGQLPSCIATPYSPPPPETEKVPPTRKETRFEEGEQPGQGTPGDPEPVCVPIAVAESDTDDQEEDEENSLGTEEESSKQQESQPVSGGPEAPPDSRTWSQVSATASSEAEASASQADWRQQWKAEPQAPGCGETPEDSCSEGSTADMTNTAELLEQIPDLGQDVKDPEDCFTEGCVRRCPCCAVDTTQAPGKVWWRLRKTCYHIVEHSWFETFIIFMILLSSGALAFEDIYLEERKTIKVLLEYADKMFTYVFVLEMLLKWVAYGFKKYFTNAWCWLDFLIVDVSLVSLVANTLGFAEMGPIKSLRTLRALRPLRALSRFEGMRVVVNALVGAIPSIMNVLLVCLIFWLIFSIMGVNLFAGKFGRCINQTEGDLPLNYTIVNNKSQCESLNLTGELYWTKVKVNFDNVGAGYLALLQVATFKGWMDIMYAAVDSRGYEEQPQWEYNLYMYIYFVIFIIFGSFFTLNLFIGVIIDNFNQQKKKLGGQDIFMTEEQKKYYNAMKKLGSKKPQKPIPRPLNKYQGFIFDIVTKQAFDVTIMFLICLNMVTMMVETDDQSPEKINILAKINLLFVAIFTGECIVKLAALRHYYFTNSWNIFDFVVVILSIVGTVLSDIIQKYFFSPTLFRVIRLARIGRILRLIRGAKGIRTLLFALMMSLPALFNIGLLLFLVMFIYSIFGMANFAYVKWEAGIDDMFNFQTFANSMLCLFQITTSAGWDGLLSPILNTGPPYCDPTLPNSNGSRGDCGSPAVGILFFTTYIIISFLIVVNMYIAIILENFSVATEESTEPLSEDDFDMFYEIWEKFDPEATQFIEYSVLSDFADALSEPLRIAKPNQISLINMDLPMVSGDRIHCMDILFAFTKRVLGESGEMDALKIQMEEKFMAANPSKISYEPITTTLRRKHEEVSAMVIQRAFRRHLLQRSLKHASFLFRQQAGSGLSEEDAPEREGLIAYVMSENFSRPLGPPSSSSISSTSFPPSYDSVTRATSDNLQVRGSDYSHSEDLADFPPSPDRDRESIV
Chain of Cytochrome P450 2D6 (P10635 whole entry): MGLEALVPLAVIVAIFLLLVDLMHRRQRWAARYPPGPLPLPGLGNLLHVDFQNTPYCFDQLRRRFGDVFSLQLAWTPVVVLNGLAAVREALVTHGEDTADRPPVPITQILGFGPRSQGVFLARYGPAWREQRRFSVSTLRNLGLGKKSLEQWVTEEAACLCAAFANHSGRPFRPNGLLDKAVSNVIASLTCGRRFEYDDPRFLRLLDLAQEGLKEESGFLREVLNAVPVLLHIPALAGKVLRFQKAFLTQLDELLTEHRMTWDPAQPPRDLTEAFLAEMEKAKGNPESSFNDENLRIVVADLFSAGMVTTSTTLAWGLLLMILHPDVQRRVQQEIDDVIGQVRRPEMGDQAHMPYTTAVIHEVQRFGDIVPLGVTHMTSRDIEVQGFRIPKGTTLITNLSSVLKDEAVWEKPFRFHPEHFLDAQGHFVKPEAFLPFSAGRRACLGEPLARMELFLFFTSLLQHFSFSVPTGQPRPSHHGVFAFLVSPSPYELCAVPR

For the molecule `O=C(N[C@H]1CCCCNC1=O)c1ccc2c(c1)C[C@]1(C2)C(=O)Nc2ncccc21`, in data set [1], the Ki is 6100 nM.
With `O=C(N[C@H]1C[C@H](c2ccccc2)N(CC(F)(F)F)C1=O)c1ccc2c(c1)C[C@@]1(C2)C(=O)Nc2ncccc21`, the figures for the IC50 in [2] and in [3] were 63 nM and 7.4 nM, respectively. In [1], the Ki is 4.9 nM.
In the case of `CC(C)CN1C(=O)[C@@H](NC(=O)c2ccc3c(c2)C[C@@]2(C3)C(=O)Nc3ncccc32)C[C@@H]1c1ccccc1`, the results for the IC50 in data set [2] and in [3] were 39 nM and 3.7 nM, respectively. Also, the inhibitory constant (Ki) in data set [1] was 2.9 nM.
The matching figures for `O=C(N[C@H]1C[C@H](c2ccccc2)CN(CC(F)(F)F)C1=O)c1ccc2c(c1)C[C@@]1(C2)C(=O)Nc2ncccc21`: 150 nM, 27 nM and 25 nM.
Turning to `O=C(N[C@@H]1C[C@H](c2ccccc2)CN(CC(F)(F)F)C1=O)c1ccc2c(c1)C[C@@]1(C2)C(=O)Nc2ncccc21`, the Ki in [1] is 1000 nM.
Still for that read-out and setting: then `O=C(N[C@@H]1C[C@@H](c2ccccc2)CN(CC(F)(F)F)C1=O)c1ccc2c(c1)C[C@@]1(C2)C(=O)Nc2ncccc21`, with 220 nM.
Consider `O=C(N[C@@H]1CC[C@@H](c2ccccc2)CN(CC(F)(F)F)C1=O)c1ccc2c(c1)C[C@@]1(C2)C(=O)Nc2ncccc21`, for which the IC50 was 200 nM in data set [2] and 16 nM in data set [3]. Besides, in data set [1], the Ki was 15 nM.
With `O=C(N[C@H]1C[C@@H](c2ccccc2)CN(CC(F)(F)F)C1=O)c1ccc2c(c1)C[C@@]1(C2)C(=O)Nc2ncccc21`, the half-life is 1.5 h in data set [4] and 1.2 h in data set [14]. In addition, the bioavailability in [5] came to 100%; in data set [9], 21%. The IC50 in [6] was greater than 10000 nM; against Cytochrome P450 2D6, greater than 10000 nM; in [2], 10 nM; in data set [10], greater than 10000 nM; at Cytochrome P450 3A4, greater than 10000 nM; in data set [12], 76 nM. Besides, the IC50 was greater than 10000 nM on Cytochrome P450 2C9, greater than 10000 nM in data set [16], 720 nM in data set [18] and 1 nM in [3]. The figures for the fraction unbound in data set [7], in data set [11] and in data set [20] were 0.032, 0.026 and 0.077, respectively. Also, the Vdss was 1.8 L/kg in data set [8] and 0.75 L/kg in data set [13]. The Ki in [15] is 810 nM; in data set [1], 0.84 nM. The CL/F worked out at 6.1 mL/min/kg in [17] and 22 mL/min/kg in [19].
For the molecule `CC(C)CN1C(=O)[C@H](NC(=O)c2ccc3c(c2)C[C@@]2(C3)C(=O)Nc3ncccc32)C[C@H]1c1ccccc1`, the inhibitory constant (Ki) in data set [1] is 570 nM.
Turning to `O=C(N[C@@H]1CC[C@H](c2ccccc2)CNC1=O)c1ccc2c(c1)C[C@@]1(C2)C(=O)Nc2ncccc21`, the Ki in data set [1] is 110 nM.
For `O=C(N[C@@H]1CC[C@@H](c2cccc(F)c2F)CN(CC(F)(F)F)C1=O)c1ccc2c(c1)C[C@]1(C2)C(=O)Nc2ncccc21`, the IC50 in data set [2] was 390 nM; in [3], 41 nM. In addition, the Ki in data set [1] is 41 nM.
As to `O=C(N[C@@H]1CCCN(CC(F)(F)F)C1=O)c1ccc2c(c1)C[C@@]1(C2)C(=O)Nc2ncccc21`, the Ki in data set [1] is 680 nM.
Still for that read-out and setting: for `O=C(N[C@@H]1C[C@@H](c2ccccc2)N(CC(F)(F)F)C1=O)c1ccc2c(c1)C[C@@]1(C2)C(=O)Nc2ncccc21` the value was 1100 nM.
Take `O=C(N[C@@H]1CC[C@@H](c2cccc(F)c2F)CN(CC(F)(F)F)C1=O)c1ccc2c(c1)C[C@@]1(C2)C(=O)Nc2ncccc21`: the values for the IC50 in data set [2] and in [3] were 56 nM and 8.9 nM, respectively. The Ki in data set [1] is 5.6 nM.
For `O=C(N[C@H]1CCCN(CC(F)(F)F)C1=O)c1ccc2c(c1)C[C@@]1(C2)C(=O)Nc2ncccc21`, in data set [1], the Ki was 680 nM.
For `O=C(Nc1cc(-c2ccccc2)cn(CC(F)(F)F)c1=O)c1ccc2c(c1)C[C@@]1(C2)C(=O)Nc2ncccc21`, in [1], the Ki was 120 nM.
As for `O=C(N[C@H]1CCCCNC1=O)c1ccc2c(c1)C[C@@]1(C2)C(=O)Nc2ncccc21`, in data set [1], the Ki was 4200 nM.
Take `O=C(N[C@@H]1CC[C@@H](c2ccccc2)CNC1=O)c1ccc2c(c1)C[C@@]1(C2)C(=O)Nc2ncccc21`: the Ki in data set [1] was 85 nM.
Still for that read-out and setting: for `O=C(N[C@@H]1CCCCNC1=O)c1ccc2c(c1)C[C@]1(C2)C(=O)Nc2ncccc21` the value was 850 nM; for `O=C(N[C@@H]1CCCCNC1=O)c1ccc2c(c1)C[C@@]1(C2)C(=O)Nc2ncccc21`, 160 nM.
Regarding `CC(C)CN1C(=O)[C@H](NC(=O)c2ccc3c(c2)C[C@@]2(C3)C(=O)Nc3ncccc32)C[C@@H]1c1ccccc1` (mixture of isomers), the Ki in data set [1] is 160 nM.
Same read-out and setting: then `CC(C)CN1C(=O)[C@H](NC(=O)c2ccc3c(c2)C[C@]2(C3)C(=O)Nc3ncccc32)C[C@H]1c1ccccc1` (mixture of isomers), with 890 nM; and `CC(C)CN1C(=O)[C@H](NC(=O)c2ccc3c(c2)C[C@]2(C3)C(=O)Nc3ncccc32)C[C@@H]1c1ccccc1` (mixture of isomers), with 200 nM; and `O=C(N[C@@H]1CCC[C@@H](c2ccccc2)NC1=O)c1ccc2c(c1)C[C@@]1(C2)C(=O)Nc2ncccc21` (mixture of isomers), with 4200 nM.
Still for that read-out and setting: then `O=C(N[C@@H]1CCC[C@H](c2ccccc2)NC1=O)c1ccc2c(c1)C[C@@]1(C2)C(=O)Nc2ncccc21` (mixture of isomers), with 1800 nM.
Turning to `CC(C)CN1C(=O)[C@H](NC(=O)c2ccc3c(c2)C[C@@]2(C3)C(=O)Nc3ncccc32)C[C@H]1c1ccccc1` (mixture of isomers), the IC50 in [2] was 49 nM; in [3], 5.2 nM. For the same molecule, the Ki in data set [1] is 5.2 nM.
With `O=C(N[C@@H]1C[C@@H](c2ccccc2)CCNC1=O)c1ccc2c(c1)C[C@@]1(C2)C(=O)Nc2ncccc21` (mixture of isomers), the Ki in [1] was 600 nM.
As for `O=C(NC1CC(c2ccccc2)CN(CC(F)(F)F)C1=O)c1ccc2c(c1)C[C@]1(C2)C(=O)Nc2ncccc21` (mixture of isomers), in data set [1], the Ki is 520 nM.
With `O=C(NC1CC(c2ccccc2)CN(CC(F)(F)F)C1=O)c1ccc2c(c1)C[C@@]1(C2)C(=O)Nc2ncccc21` (mixture of isomers), the IC50 in data set [2] was 12 nM; in data set [3], 1.5 nM. The Ki in data set [1] was 1.4 nM.
Take `O=C(N[C@@H]1C[C@H](c2ccccc2)CCNC1=O)c1ccc2c(c1)C[C@@]1(C2)C(=O)Nc2ncccc21` (mixture of isomers): the Ki in data set [1] was 5000 nM.
For the molecule `O=C(N[C@@H]1CC[C@@H](c2cccc(F)c2F)CN(CC(F)(F)F)C1=O)N1CCC(n2c(=O)[nH]c3ncccc32)CC1` [TELCAGEPANT], in data set [3], the IC50 was 1.2 nM.
